SMILES strings stand for the structures. pEC50, pIC50: −log10 of the molar value.

The subject of one series is HBV. Nature of the series: Determination of HBV DNA from the supernatants of HepAD38 cells (anti-HBV activity). To be noted: Hepatitis B virus, 144 h; HBV DNA in HepAD38 supernatant, day 6, qPCR; read-out: Cell Activity (EC50). It counts as cell-based, hepatitis B virus. An outline of the steps: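 HepAD38 cells, tetracycline withdrawn to induce HBV, treated with serial half-log compound dilutions; on day 6 HBV DNA purified from filtered supernatant and quantified by real-time PCR against HBV plasmid standards; EC50 from relative copy numbers by non-linear regression, three experiments in triplicate.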

The target in another series is T1, HBV core protein (UniProt P03146).
T1 construct: fused on or other part: BODIPY-FL maleimide label on the C-terminal Cys150
T1 sequence (P03146 whole entry, looked up, the tested form may be a part): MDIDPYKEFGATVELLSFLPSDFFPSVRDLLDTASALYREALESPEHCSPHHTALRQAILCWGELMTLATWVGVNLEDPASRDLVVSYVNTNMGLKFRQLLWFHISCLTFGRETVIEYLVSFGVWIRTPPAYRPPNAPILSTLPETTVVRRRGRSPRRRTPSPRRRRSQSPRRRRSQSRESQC
Nature of the series: Biochemical capsid assembly assay (fluorescence quenching). To be noted: read-out: Assembly Activity (IC50); BODIPY-FL labelled core protein, 300 μM NaCl, read 6 min after start. On the set-up: species or system hepatitis B virus. An outline of the steps:
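Purified E. coli-expressed HBV core protein (aa 1-149 plus Cys150), BODIPY-FL maleimide-labelled, at 1.0-2.0 μM in 50 mM HEPES pH 7.5 with 0.5% DMSO was used. Compounds were tested at 8 concentrations (0.5-log dilutions from 100, 31.6 or 10 μM). Assembly was started with NaCl ([…]), and fluorescence quenching was read after 6 min (ex 477/em 525 nm). EC50 was determined by non-linear regression.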

Series [1] is described as follows: Cell viability assay (AlamarBlue) in HepAD38 cells. To be noted: human.

On to `CN(CC(O)C1CC1)C(=O)c1n[nH]c2c1CN(C(=O)c1cc3ccccc3[nH]1)CC2` (stereo not drawn) [Example 256, N-(2-cyclopropyl-2-hydroxyethyl)-5-(1H-indole-2-carbonyl)-N-methyl-1H,4H,5H,6H,7H-pyrazolo[4,3-c]pyridine-3-carboxamide], for which, in the series on HBV, the negative logarithm of the EC50 (pEC50) was over 6.00. Also, at HBV core protein, the pIC50 is over 5.30. The compound further registered a CC50 at 6 days in series [1] of over 10 µM.
On to `COCC1(N(C)C(=O)c2n[nH]c3c2CN(C(=O)c2cc4c(Cl)cccc4[nH]2)CC3)CC1` [Example 262, 5-(4-chloro-1H-indole-2-carbonyl)-N-[1-(methoxymethyl)cyclopropyl]-N-methyl-1H,4H,5H,6H,7H-pyrazolo[4,3-c]pyridine-3-carboxamide], for which, in the series with HBV, the negative logarithm of the EC50 (pEC50) is over 6.00. At HBV core protein, the pIC50 was over 5.30. For the same compound, in series [1], the CC50 at 6 days is over 10 µM.
Take `COCC1(N(C)C(=O)c2n[nH]c3c2CN(C(=O)c2cc4ccc(Cl)cc4[nH]2)CC3)CC1` [Example 263, 5-(6-chloro-1H-indole-2-carbonyl)-N-[1-(methoxymethyl)cyclopropyl]-N-methyl-1H,4H,5H,6H,7H-pyrazolo[4,3-c]pyridine-3-carboxamide]: the negative-log EC50 (pEC50) in the series on HBV is over 6.00. Besides, on HBV core protein, the pIC50 was over 5.30. This compound registered a CC50 at 6 days in series [1] of over 10 µM.
For `COCC1(N(C)C(=O)c2n[nH]c3c2CN(C(=O)c2cc4c(Cl)cc(F)cc4[nH]2)CC3)CC1` [Example 264, 5-(4-chloro-6-fluoro-1H-indole-2-carbonyl)-N-[1-(methoxymethyl)cyclopropyl]-N-methyl-1H,4H,5H,6H,7H-pyrazolo[4,3-c]pyridine-3-carboxamide], in that order: over 6.00, over 5.30 and over 10 µM.
For `COCC1(N(C)C(=O)c2n[nH]c3c2CN(C(=O)c2cc4cc(F)c(Cl)cc4[nH]2)CC3)CC1` [Example 265, 5-(6-chloro-5-fluoro-1H-indole-2-carbonyl)-N-[1-(methoxymethyl)cyclopropyl]-N-methyl-1H,4H,5H,6H,7H-pyrazolo[4,3-c]pyridine-3-carboxamide] the same measures were over 6.00, over 5.30 and over 10 µM.
For `COCC1(N(C)C(=O)c2n[nH]c3c2CN(C(=O)c2cc4c(F)cc(F)cc4[nH]2)CC3)CC1` [Example 266, 5-(4,6-difluoro-1H-indole-2-carbonyl)-N-[1-(methoxymethyl)cyclopropyl]-N-methyl-1H,4H,5H,6H,7H-pyrazolo[4,3-c]pyridine-3-carboxamide], in that order: over 6.00, over 5.30 and over 10 µM.
Turning to `COCC1(N(C)C(=O)c2n[nH]c3c2CN(C(=O)c2cc4c(F)c(F)ccc4[nH]2)CC3)CC1` [Example 267, 5-(4,5-difluoro-1H-indole-2-carbonyl)-N-[1-(methoxymethyl)cyclopropyl]-N-methyl-1H,4H,5H,6H,7H-pyrazolo[4,3-c]pyridine-3-carboxamide], the pEC50 in the series on HBV is over 6.00. The pIC50 at HBV core protein was over 5.30. Further, the CC50 at 6 days in series [1] was over 10 µM.
For `COCC1(N(C)C(=O)c2n[nH]c3c2CN(C(=O)c2cc4c(C)cc(F)cc4[nH]2)CC3)CC1` [Example 269, 5-(6-fluoro-4-methyl-1H-indole-2-carbonyl)-N-[1-(methoxymethyl)cyclopropyl]-N-methyl-1H,4H,5H,6H,7H-pyrazolo[4,3-c]pyridine-3-carboxamide] the same measures were over 6.00, over 5.30 and over 10 µM.
For `CCc1cccc2[nH]c(C(=O)N3CCc4[nH]nc(C(=O)N(C)C5(COC)CC5)c4C3)cc12` [Example 270, 5-(4-ethyl-1H-indole-2-carbonyl)-N-[1-(methoxymethyl)cyclopropyl]-N-methyl-1H,4H,5H,6H,7H-pyrazolo[4,3-c]pyridine-3-carboxamide] the same measures were over 6.00, over 5.30 and over 10 µM.
`CCc1cc(F)cc2[nH]c(C(=O)N3CCc4[nH]nc(C(=O)N(C)C5(CO)CC5)c4C3)cc12` [Example 271, 5-(4-ethyl-6-fluoro-1H-indole-2-carbonyl)-N-[1-(hydroxymethyl)cyclopropyl]-N-methyl-1H,4H,5H,6H,7H-pyrazolo[4,3-c]pyridine-3-carboxamide]: in the series on HBV, the pEC50 is over 6.00. Besides, the pIC50 on HBV core protein is over 5.30. In addition, in series [1], the CC50 at 6 days was over 10 µM.
With `CCc1cc(F)cc2[nH]c(C(=O)N3CCc4[nH]nc(C(=O)N(C)C5(COC)CC5)c4C3)cc12` [Example 272, 5-(4-ethyl-6-fluoro-1H-indole-2-carbonyl)-N-[1-(methoxymethyl)cyclopropyl]-N-methyl-1H,4H,5H,6H,7H-pyrazolo[4,3-c]pyridine-3-carboxamide], the pEC50 in the series on HBV was over 6.00. At HBV core protein, the pIC50 is over 5.30. Further, the CC50 at 6 days in series [1] was over 10 µM.
For `CCON=C(C)c1n[nH]c2c1CN(C(=O)c1cc3ccccc3[nH]1)CC2` [Example 273, ethoxy({1-[5-(1H-indole-2-carbonyl)-1H,4H,5H,6H,7H-pyrazolo[4,3-c]pyridin-3-yl]ethylidene})amine] the same measures were 4.60 to 6.00, over 4.00 and over 10 µM.
Turning to `CON=C(C)c1n[nH]c2c1CN(C(=O)c1cc3ccccc3[nH]1)CC2` [Example 274, {1-[5-(1H-indole-2-carbonyl)-1H,4H,5H,6H,7H-pyrazolo[4,3-c]pyridin-3-yl]ethylidene}(methoxy)amine], the pEC50 in the series on HBV was 4.60 to 6.00. Further, the pIC50 on HBV core protein is over 4.00. Further, in series [1], the CC50 at 6 days was over 10 µM.
For `O=C(c1cc2ccccc2[nH]1)N1CCc2n[nH]c(C(=O)N3CCCCC34CC4)c2C1` [Example 279, 2-(3-{4-azaspiro[2.5]octane-4-carbonyl}-2H,4H,5H,6H,7H-pyrazolo[4,3-c]pyridine-5-carbonyl)-1H-indole] the same measures were over 6.00, over 5.30 and over 10 µM.
`CN(CCN)C(=O)c1[nH]nc2c1CN(C(=O)c1cc3ccccc3[nH]1)CC2` [Example 280, N-(2-aminoethyl)-5-(1H-indole-2-carbonyl)-N-methyl-2H,4H,5H,6H,7H-pyrazolo[4,3-c]pyridine-3-carboxamide]: the negative logarithm of the EC50 (pEC50) with HBV was over 6.00. Further, the pIC50 on HBV core protein is over 4.00. The CC50 at 6 days in series [1] was over 10 µM.
For `CNC(=O)c1n[nH]c2c1CN(C(=O)c1cc3ccccc3[nH]1)CC2` [Example 285, 5-(1H-indole-2-carbonyl)-N-methyl-1H,4H,5H,6H,7H-pyrazolo[4,3-c]pyridine-3-carboxamide] the same measures were 4.60 to 6.00, over 4.00 and over 10 µM.
For `CN(C(=O)c1n[nH]c2c1CN(C(=O)c1cc3c(Cl)cccc3[nH]1)CC2)C1(CO)CC1` [Example 290, 5-(4-chloro-1H-indole-2-carbonyl)-N-[1-(hydroxymethyl)cyclopropyl]-N-methyl-1H,4H,5H,6H,7H-pyrazolo[4,3-c]pyridine-3-carboxamide], in that order: over 6.00, over 5.30 and over 10 µM.
Regarding `CCc1cccc2[nH]c(C(=O)N3CCc4[nH]nc(C(=O)N(C)C5(CO)CC5)c4C3)cc12` [Example 291, 5-(4-ethyl-1H-indole-2-carbonyl)-N-[1-(hydroxymethyl)cyclopropyl]-N-methyl-1H,4H,5H,6H,7H-pyrazolo[4,3-c]pyridine-3-carboxamide], the pEC50 in the series with HBV is over 6.00. Besides, on HBV core protein, the pIC50 was over 5.30. The CC50 at 6 days in series [1] was over 10 µM.
Take `CN(CCC#N)C(=O)c1n[nH]c2c1CN(C(=O)c1cc3ccccc3[nH]1)CC2` [Example 292, N-(2-cyanoethyl)-5-(1H-indole-2-carbonyl)-N-methyl-1H,4H,5H,6H,7H-pyrazolo[4,3-c]pyridine-3-carboxamide]: the pEC50 with HBV was 4.60 to 6.00. On HBV core protein, the negative logarithm of the IC50 (pIC50) was over 5.30. In series [1], this compound came in with a CC50 at 6 days of over 10 µM.
For `CCN(C(=O)c1n[nH]c2c1CN(C(=O)c1cc3ccccc3[nH]1)CC2)C1(COC)CC1` [Example 296, N-ethyl-5-(1H-indole-2-carbonyl)-N-[1-(methoxymethyl)cyclopropyl]-1H,4H,5H,6H,7H-pyrazolo[4,3-c]pyridine-3-carboxamide] the same measures were over 6.00, over 5.30 and over 10 µM.
For `COCC1(N(C)C(=O)c2n[nH]c3c2CN(C(=O)c2cc4c(F)ccc(F)c4[nH]2)CC3)CC1` [Example 297, 5-(4,7-difluoro-1H-indole-2-carbonyl)-N-[1-(methoxymethyl)cyclopropyl]-N-methyl-1H,4H,5H,6H,7H-pyrazolo[4,3-c]pyridine-3-carboxamide] the same measures were over 6.00, over 5.30 and over 10 µM.
For `COCC1(N(C)C(=O)c2n[nH]c3c2CN(C(=O)c2cc4c(C(F)F)cc(F)cc4[nH]2)CC3)CC1` [Example 298, 5-[4-(difluoromethyl)-6-fluoro-1H-indole-2-carbonyl]-N-[1-(methoxymethyl)cyclopropyl]-N-methyl-1H,4H,5H,6H,7H-pyrazolo[4,3-c]pyridine-3-carboxamide] the same measures were over 6.00, over 5.30 and over 10 µM.

The values above are taken from patent US11236087B2, “Highly active pyrazolo-piperidine substituted indole-2-carboxamides active against the hepatitis B virus (HBV)” (AiCuris GmbH & Co. KG, priority 2017, dated 2022).
